This note sets out measurements from paper PMC10734772 (Turkish Journal of Chemistry, 2021).

The structures appear in SMILES notation.

Turning to `Cc1ccc(NC(=O)c2ccc(CN3CCN(c4ncccn4)CC3)cc2)cc1Br` [Compound 4a, N-(3-Bromo-4-methylphenyl)-4-((4-(pyrimidin-2-yl)piperazin-1-yl)methyl)benzamide], the melting point (commonly the temperature of the solid-liquid transition) amounted to 105 °C.
The molecule `COc1ccc(CN2CCN(Cc3ccc(C(=O)Nc4ccc(C)c(Br)c4)cc3)CC2)c(OC)c1OC` [Compound 4b, N-(3-Bromo-4-metylphenyl)-4-((4-(2,3,4-trimethoxybenzyl)piperazin-1-yl)methyl)benzamide] returned a melting point of 135 °C.
As for `Cc1ccc(NC(=O)c2ccc(CN3CCOCC3)cc2)cc1Br` [Compound 4c, N-(3-Bromo-4-methylphenyl)-4-(morpholinomethyl)benzamide], the figure is 116 °C.
